Data taken from patent US7419984B2, “Pyrimidines and uses thereof” (Cell Therapeutics, Inc., priority 2002, dated 2008).

Molecular target: T1, human LPAAT-β (Homo sapiens, UniProt O15120)
T1 construct: the full-length human LPAAT-β cDNA was amplified by PCR; poly-histidine tag (N); made in house; host or cells: Sf9 insect cells (baculovirus, pFastBac HTc); the membrane fraction was used as the enzyme
T1 sequence (O15120 24-278): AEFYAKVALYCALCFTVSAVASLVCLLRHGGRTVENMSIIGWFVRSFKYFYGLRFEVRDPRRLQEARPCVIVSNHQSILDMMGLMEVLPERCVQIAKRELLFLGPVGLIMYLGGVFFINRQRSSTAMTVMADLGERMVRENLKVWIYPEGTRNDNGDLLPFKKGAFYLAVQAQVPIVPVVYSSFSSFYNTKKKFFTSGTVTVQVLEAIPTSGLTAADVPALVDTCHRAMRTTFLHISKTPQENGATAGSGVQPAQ
Assay: LPAAT-β cell-free assay
Assay type: biochemical
Details: Sf9 cell membrane overexpressing recombinant LPAAT-β
How it was run: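 Membranes from Sf9 cells expressing His/myc-tagged full-length human LPAAT-β were used in HEPES-saline pH 7.5 with 1 mg/ml BSA. Compound was added from a 200 μM DMSO stock, and reaction with 18:1-CoA and sn-1-18:1 lysoPA (1 mM stocks) ran 25 min at RT. Released CoA was detected with DTNB at 405 nm; a radiometric variant used 200 μM [14C]18:1-CoA and 200 μM lysoPA.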

| SMILES | IC50 [nM] |
| --- | --- |
| CCc1ccc(Cl)cc1-c1cc(Nc2ccc(Cl)cc2)nc(N)n1 [Example 167, 6-(5-Chloro-2-ethyl-phenyl)-N*-4*-(4-chloro-phenyl)-pyrimidine-2,4-diamine] | 180 |
| CCOC(=O)c1cccc(Nc2cc(-c3cc(Br)ccc3OC)nc(N)n2)c1 [Example 171, 3-[2-Amino-6-(5-bromo-2-methoxy-phenyl)-pyrimidin4-ylamino]-benzoic acid ethyl ester] | 260 |
| C=CCOc1ccc(Cl)cc1-c1cc(Nc2ccc(Cl)cc2)nc(N)n1 [Example 174, 6-(2-Allyloxy-5-chloro-phenyl)-N*4*-(4-chloro-phenyl)-pyrimidine-2,4-diamine] | 9 |
| Cc1ccc(Cl)cc1-c1cc(Nc2ccc(CCO)cc2)ncn1 [Example 176, 2-{4-[6-(5-Chloro-2-methyl-phenyl)-pyrimidin-4-ylamino]-phenyl}-ethanol] | 60 |
| Nc1nc(Nc2ccc([N+](=O)[O-])cc2)cc(-c2cc(Br)ccc2OCc2ccccc2)n1 [Example 177, 6-(2-Benzyloxy-5-bromo-phenyl)-N*4*-(4-nitro-phenyl)-pyrimidine-2,4-diamine] | 2 |
| Nc1nc(Nc2ccc(Cl)cc2)cc(-c2cc(Br)ccc2OCc2ccc([N+](=O)[O-])cc2)n1 [Example 178, 6-[5-Bromo-2-(4-nitro-benzyloxy)-phenyl]-N*4*-(4-chloro-phenyl)-pyrimidine-2,4-diamine] | 21 |
| COc1ccccc1COc1ccc(Br)cc1-c1cc(Nc2ccc(Cl)cc2)nc(N)n1 [Example 182, 6-[5-Bromo-2-(2-methoxy-benzyloxy)-phenyl]-N*4*-(4-chloro-phenyl)-pyrimidine-2,4-diamine] | 4 |
| CNC(=O)c1cc(Nc2cc(-c3cc(Br)ccc3OC)nc(N)n2)ccc1Cl [Example 184, 5-[2-Amino-6-(5-bromo-2-methoxy-phenyl)-pyrimidin4-ylamino]-2-chloro-N-methyl-benzamide] | 200 |
| CCOc1ccc(Br)cc1-c1cc(Nc2ccc(C(N)=O)cc2)nc(N)n1 [Example 186, 4-[2-Amino-6-(5-bromo-2-ethoxy-phenyl)-pyrimidin4-ylamino]-benzamide] | 740 |
| Nc1nc(Nc2ccc(Cl)cc2)cc(-c2cc(Br)ccc2Cl)n1 [Example 187, 6-(5-Bromo-2-chloro-phenyl)-N*4*-(4-chloro-phenyl)-pyrimidine-2,4-diamine] | 22 |
| CCOc1ccc(Br)cc1-c1cc(Nc2ccc(Cl)cc2)ncn1 [Example 190, [6-(5-Bromo-2-ethoxy-phenyl)-pyrimidin4-yl]-(4-chloro-phenyl)-amine] | 30 |
| CCOc1ccc(Br)cc1-c1cc(Nc2ccc(CCO)cc2)ncn1 [Example 191, 2-{4-[6-(5-Bromo-2-ethoxy-phenyl)-pyrimidin-4-ylamino]-phenyl}-ethanol] | 20 |
| CCOc1ccc(Br)cc1-c1cc(Nc2ccc(F)cc2)ncn1 [Example 192, [6-(5-Bromo-2-ethoxy-phenyl)-pyrimidin4-yl]-(4-fluoro-phenyl)-amine] | 60 |

Further lines, results first:

| IC50 [nM] | SMILES |
| --- | --- |
| 16 | Nc1nc(Nc2ccc(Cl)cc2)cc(-c2cc(Cl)ccc2OCC2CCCCC2)n1 [Example 168, 6-(5-Chloro-2-cyclohexylmethoxy-phenyl)-N*4*-(4-chloro-phenyl)-pyrimidine-2,4-diamine] |
| 93 | CCc1ccc(Cl)cc1-c1cc(Nc2ccc([N+](=O)[O-])cc2)nc(N)n1 [Example 169, 6-(5-Chloro-2-ethyl-phenyl)-N*-4*-(4-nitro-phenyl)-pyrimidine-2,4-diamine] |
| 24 | CCOC(=O)c1cccc(Nc2cc(-c3cc(Cl)ccc3Cl)nc(N)n2)c1 [Example 170, 3-[2-Amino-6-(2,5-dichloro-phenyl)-pyrimidin-4-ylamino]-benzoic acid ethyl ester] |
| 45 | Cc1ccc(Cl)cc1-c1cc(Nc2ccc(Br)cc2)ncn1 [Example 172, (4-Bromo-phenyl)-[6-(5-chloro-2-methyl-phenyl)-pyrimidin-4-yl]-amine] |
| 100 | CCc1ccc(Cl)cc1-c1cc(Nc2ccc(CCO)cc2)nc(N)n1 [Example 175, 2-{4-[2-amino-6-(5-chloro-2-ethyl-phenyl)-pyrimidin4-ylamino]-phenyl}-ethanol] |
| 180 | Nc1nc(Nc2ccc(Cl)c(C(F)(F)F)c2)cc(-c2cc(Cl)ccc2Cl)n1 [Example 179, N*4*-(4-Chloro-3-trifluoromethyl-phenyl)-6-(2,5-dichloro-phenyl)-pyrimidin-2,4-diamine] |
| 160 | CCOc1ccc(Br)cc1-c1cc(Nc2ccc(C(F)(F)F)cc2)ncn1 [Example 180, [6-(5-Bromo-2-ethoxy-phenyl)-pyrimidin-4-yl]-(4-trifluoromethyl-phenyl)-amine] |
| 40 | CCOc1ccc(Br)cc1-c1cc(Nc2ccc(Br)cc2)ncn1 [Example 181, [6-(5-Bromo-2-ethoxy-phenyl)-pyrimidin-4-yl]-(4-bromo-phenyl)-amine] |
| 88 | CCOc1ccc(Br)cc1-c1cc(Nc2ccc(C(=O)NO)cc2)nc(N)n1 [Example 183, 4-[2-Amino-6-(5-bromo-2-ethoxy-phenyl)-pyrimidin-4-ylamino]-N-hydroxy-benzamide] |
| 4 | COc1ccc(COc2ccc(Br)cc2-c2cc(Nc3ccc(Cl)cc3)nc(N)n2)cc1 [Example 185, 6-[5-Bromo-2-(4-methoxy-benzyloxy)-phenyl]-N*4*-(4-chloro-phenyl)-pyrimidine-2,4-diamine] |
| 21 | COc1ccccc1COc1ccc(Br)cc1-c1cc(Nc2ccc(C)cc2)nc(N)n1 [Example 188, 6-[5-Bromo-2-(2-methoxy-benzyloxy)-phenyl]-N*4*-p-tolyl-pyrimidine-2,4-diamine] |
| 79 | Nc1nc(Nc2ccc(C(F)(F)F)cc2)cc(-c2cc(Br)ccc2Cl)n1 [Example 189, 6-(5-Bromo-2-chloro-phenyl)-N*4*-(4-trifluoromethyl-phenyl)-pyrimidine-2,4-diamine] |
